In patent US20120165319A1, “INHIBITORS OF INTERLEUKIN-1 BETA CONVERTING ENZYME” (VERTEX PHARMACEUTICALS INCORPORATED, priority 1995, published 2012):
Like-named read-outs stand apart in the source and are kept apart here.

Columns and labels:
[1] = tested on: IL-1β, human peripheral blood mononuclear cells (PBMC); assay: PBMC cell assay: IL-1β assay with human PBMC or enriched adherent mononuclear cells, LPS-stimulated; assay type: cell-based
Summary of the method: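 Buffy-coat human PBMC at 6×10^6 cells/ml, or adherent monocytes enriched by 1 h adherence (2.5−3.0×10^5 cells/well), are given 5–6 compound dilutions bracketing the ICE Ki (final DMSO 0.1%) plus LPS at a final 5 ng/ml. They are incubated 16–18 hr at 37 °C, 5% CO2, and supernatant mature IL-1β is measured by ELISA, with duplicate cultures and duplicate ELISAs.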

IL-1β, human whole blood = assay: Whole blood assay for IL-1β production; assay type: cell-based; settings: read-out: Whole human blood IC50
Procedure: The whole blood assay is a simple method for measuring the production of IL-1b (or other cytokines) and the activity of potential inhibitors. The complexity of this assay system, with its full complement of lymphoid and inflammatory cell types, spectrum of plasma proteins and red blood cells is an ideal in vitro representation of human in vivo physiologic conditions.
Pyrogen-free syringes (˜30 cc) Pyrogen-free sterile vacuum tubes containing lyophilized Na2EDTA (4.5 mg/10 ml tube) Human whole blood sample (˜30-50 cc) 1.5 ml eppendorf tubes Test compound stock solutions (˜25 mM in DMSO or other solvent) Endotoxin-free sodium chloride solution (0.9%) and HBSS Lipopolysaccharide (Sigma; Cat. # L-3012) stock solution at 1 mg/ml in HBSS
IL-1β ELISA Kit (R & D Systems; Cat # DLB50)
TNFα ELISA Kit (R & D Systems; Cat # DTA50)
Whole Blood Assay Experimental Procedure:
Set incubator or water bath at 30° C. Aliquot 0.25 ml of blood into 1.5 ml eppendorf tubes. Note: be sure to invert the whole blood sample tubes after every two aliquots. Differences in replicates may result if the cells sediment and are not uniformly suspended. Use of a positive displacement pipette will also minimize differences between replicate aliquots.
Prepare drug dilutions in sterile pyrogen-free saline by serial dilution. A dilution series which brackets the apparent Ki for a test compound determined in an ICE inhibition assay is generally used for the primary compound screen.
Add 25 μl test compound dilution or vehicle control and gently mix the sample. Then add 5.0 μl LPS solution (250 ng/ml stocked prepared fresh: 5.0 ng/ml final concentration LPS), and mix again. Incubate the tubes at 30° C. in a water bath for 16-18 hr with occasional mixing. Alternatively, the tubes can be placed in a rotator set at 4 rpm for the same incubation period. This assay should be set up in duplicate or triplicate with the following controls: negative control—no LPS; positive control—no test inhibitor; vehicle control—the highest concentration of DMSO or compound solvent used in the experiment. Additional saline is added to all control tubes to normalize volumes for both control and experimental whole blood test samples
After the incubation period, whole blood samples are centrifuged for 10 minutes at ˜2000 rpm in the microfuge, plasma is transferred to a fresh microfuge tube and centrifuged at 1000×g to pellet residual platelets if necessary. Plasma samples may be stored frozen at −70° C. prior to assay for cytokine levels by ELISA.
We have used R & D Systems (614 McKinley Place N.E. Minneapolis, Minn. 55413) Quantikine kits for measurement of IL-1β and TNF-α. The assays are performed according to the manufacturer's directions.
We have observed IL-1β levels of ˜1-5 ng/ml in positive controls among a range of individuals. A 1:200 dilution of plasma for all samples has been sufficient in our experiments for ELISA results to fall on the linear range of the ELISA standard curves. It may be necessary to optimize standard dilutions if you observe differences in the whole blood assay. Nerad, J. L. et al., J. Leukocyte Biol., 52, pp. 687-692 (1992).

ICE = biological target: T1, ICE (Homo sapiens, UniProt P29466); assay: Enzyme assay with UV-visible substrate (visible ICE assay, Succinyl-Tyr-Val-Ala-Asp-pNitroanilide); assay type: biochemical
T1 sequence (P29466 120-297 limits assumed): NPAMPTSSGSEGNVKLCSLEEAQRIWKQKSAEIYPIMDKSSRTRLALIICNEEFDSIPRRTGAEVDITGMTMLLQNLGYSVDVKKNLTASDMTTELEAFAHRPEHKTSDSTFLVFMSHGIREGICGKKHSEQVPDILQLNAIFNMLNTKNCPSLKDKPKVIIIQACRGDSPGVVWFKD
T1 sequence (P29466 317-404 limits assumed): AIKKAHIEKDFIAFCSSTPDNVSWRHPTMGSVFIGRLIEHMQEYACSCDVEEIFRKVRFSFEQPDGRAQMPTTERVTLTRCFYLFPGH
Summary of the method: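 Read-out is the rate of pNA chromophore release (mOD/min, linear fit) monitored at 405-603 nm over 20 min at 37° C. Substrate was succinyl-Tyr-Val-Ala-Asp-pNitroanilide, added after a 15 min room-temperature preincubation of ICE with inhibitor.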

[2] = Homo sapiens, PBMC, * = values obtained upon reassay
[3] = Homo sapiens, * = values obtained upon reassay
[4] = * = values obtained upon reassay

Row | Compound | IC50 [1, 2] | IC50 (IL-1β, human whole blood; [3]) | Ki (ICE; Table 17) | IC50 ([1]; Homo sapiens, PBMC, Table 17) | IC50 (IL-1β, human whole blood; Homo sapiens, Table 17) | Ki (ICE; Table 5) | IC50 [1, 4] | IC50 (IL-1β, human whole blood; [4])
1 | COc1cccc2oc(C(=O)[C@H](CC(=O)O)NC(=O)[C@@H]3CCCN4C(=O)CC[C@H](NC(=O)CCc5ccccc5)C(=O)N34)nc12 [Compound 135b] | 1600 nM | 1700 nM |  |  |  |  |  | 
2 | O=C[C@H](CC(=O)O)NC(=O)[C@@H]1CCCN2C(=O)CC[C@H](NC(=O)c3cc(Cl)cc(Cl)c3)C(=O)N12 [Compound 214j, [3S(1S,9S)]3-(9-(3,5-Dichlorobenzoyl)amino-6,10-dioxo-1,2,3,4,7,8,9,10-octahydro-6H-pyridazino[1,2-a][1,2]diazepine-1-carboxamido)-4-oxobutanoic acid] |  |  | 4.2 nM | 2500 nM | 6000 nM |  |  | 
3 | O=C(O)CC(NC(=O)[C@@H]1CCCN2C(=O)CC[C@H](NC(=O)c3ccccc3)C(=O)N12)C(=O)COCc1ccccc1Cl (some centres unmarked) [Compound 227e] | 234 nM | 550 nM |  |  |  | 7 nM |  | 
4 | CC(=O)N[C@H]1CCC(=O)N2CCC[C@@H](C(=O)N[C@@H](CC(=O)O)C(=O)COc3cccnc3)N2C1=O [Compound 283d, [3S(1S,9S)]3-(9-Acetamido-6,10-dioxo-1,2,3,4,7,8,9,10-octahydro-6H-pyridazino[1,2-a][1,2]diazepine-1-carboxamido)-4-oxo-5-(3-pyridyloxy)pentanoic acid] |  |  |  | > 8000 nM | 10000 nM |  |  | 
5 | CC(C)(C)OC(=O)C[C@@H](C=NOCc1c(Cl)cccc1Cl)NC(=O)[C@@H]1CCCN2C(=O)CC[C@H](NC(=O)c3ccccc3)C(=O)N12 [Compound 307a, [3S(1S,9S)3-(9-Benzoylamino-6,10-dioxo-1,2,3,4,7,8,9,10-octahydro-6H-pyridazino-[1,2-a][1,2]diazapine-1-carboxamido)-amino]-4-oxobutanoicacid t-butyl ester, O-(2,6-dichlorophenylmethyl)oxime] |  |  |  |  |  | 55 nM | 14500 nM | 16000 nM
6 | COc1ccccc1C(=O)N[C@H]1CCC(=O)N2CCC[C@@H](C(=O)N[C@H](C=O)CC(=O)O)N2C1=O [Compound 405] | 1700 nM | 2100 nM |  |  |  | 6.5 nM |  | 
7 | O=C[C@H](CC(=O)O)NC(=O)[C@@H]1CCCN2C(=O)CC[C@H](NC(=O)c3ccccc3Cl)C(=O)N12 [Compound 406] | 1650 nM | 2300 nM |  |  |  | 4 nM |  | 
8 | O=C[C@H](CC(=O)O)NC(=O)[C@@H]1CCCN2C(=O)CC[C@H](NC(=O)c3ccc4ccccc4c3)C(=O)N12 [Compound 407] | 540 nM | 1700 nM |  |  |  | 0.4 nM |  | 
9 | O=C[C@H](CC(=O)O)NC(=O)[C@@H]1CCCN2C(=O)CC[C@H](NC(=O)c3ccc4ccccc4n3)C(=O)N12 [Compound 411] | 540 nM | 1900 nM |  |  |  | 0.9 nM |  | 
10 | CCn1nc(C)cc1C(=O)N[C@H]1CCC(=O)N2CCC[C@@H](C(=O)N[C@H](C=O)CC(=O)O)N2C1=O [Compound 422] | 2200 nM | 1200 nM |  |  |  | 50 nM |  | 
11 | Cc1cc(C(=O)N[C@H]2CCC(=O)N3CCC[C@@H](C(=O)N[C@H](C=O)CC(=O)O)N3C2=O)no1 [Compound 424] | 2500 nM | 4000 nM |  |  |  | 45 nM |  | 
12 | O=C[C@H](CC(=O)O)NC(=O)[C@@H]1CCCN2C(=O)CC[C@H](NC(=O)c3ccc4cc(O)ccc4c3)C(=O)N12 [Compound 425] | 650 nM | 650 nM |  |  |  | 0.8 nM | 700 nM | 
13 | Nc1ccc(C(=O)N[C@H]2CCC(=O)N3CCC[C@@H](C(=O)N[C@H](C=O)CC(=O)O)N3C2=O)cc1 [Compound 431] | > 8000 nM | 8000 nM |  |  |  | 8 nM |  | 
14 | O=C[C@H](CC(=O)O)NC(=O)[C@@H]1CCCN2C(=O)CC[C@H](NC(=O)c3ccc4nn[nH]c4c3)C(=O)N12 [Compound 432] | 560 nM | 2000 nM |  |  |  | 1.6 nM |  | 
